From patent publication US20060100177A1, “Stabilized ascorbic acid derivatives” (priority 2002, published 2006)

Experiments:
[1] = stability test of aqueous solution, ratio of compound remaining after storage (HPLC); assay type: physicochemical; conditions: 2 mass % in purified water, glass bottle, 40° C., light-shielding, 10 days
Procedure: (under light-shielding condition) for 10 days. The ratio of the compound remaining after the storage was analyzed by using a high-performance liquid chromatograph equipped with Shodex (registered trademark of Showa Denko K.K.) SB802.5 HQ (mfd. by Showa Denko K.K.) column.
(Measurement Conditions for High-Performance Liquid Chromatography)

guinea pig incised wound = experiment: collagen synthesis-accelerating effect in guinea pig model system having an incised wound; assay type: in vivo; conditions: for Detachment tension / Hydroxyproline content: 0.2 ml test solution twice a day for four days (1) 2%; 2) and 3) 1%); for Detachment tension: incised wound on back; for Hydroxyproline content: skin section with incised wound, index of collagen; for effect on collagen synthesis and recovery of incised wound (in words): guinea pig incised wound
From the text: The collagen synthesis-accelerating effects of the following 1) to 3) test substances was compared with each other, by using a guinea pig model system having an incised (or cut) wound. The base material for dissolving each test substance was purified water containing 20% of ethanol, and 3% of propylene glycol. In this experiment, two incised wounds each having a length of 2 cm were formed on the back of a guinea pig by using a scalpel, so that the incised wounds are positioned symmetrically with regard to the center portion of the back. Then, 0.2 ml of the test substance solution was administered thereto twice a day, for four days. After the last administration was completed, a skin piece of 2 cm×2 cm (square shape) was surgically removed from the back of the guinea pig, so that the incised wound portions were positioned substantially at the center of the skin piece. Then, the tension required for the detachment of the incised wound surface was measured. Five guinea pigs were used with respect to one kind of the test substances. […] After the separation thereof by centrifugation, the resultant supernatant was freeze-dried. The protein content of the thus obtained skin sample was hydrolyzed with hydrochloric acid, and was subjected to amino acid analysis by use of AccQ.Tag Amino acid Analyzer (mfd. by Waters Co.). The results of the detachment tension measurement for the incised wound portion to which each test substance had been applied, and the hydroxyproline content thereof were as follows. Herein, the hydroxyproline is a substance which can be taken as an index of collagen.

[2] = test system: human skin tissue three-dimensional model (TESTSKIN LSD-d); experiment: amount of ascorbic acid in human skin tissue three-dimensional model after application of test solution; assay type: cell-based; conditions: for amount of the ascorbic acid, 2 hours after culture / amount of the ascorbic acid, 6 hours after culture / amount of the ascorbic acid, 12 hours after culture: 40 μL test solution in Dulbecco PBS(−) applied 2 h (1) 2%; 2) and 3) 0.5%), removed; for amount of the ascorbic acid, 2 hours after culture: then cultured 2 hours; for amount of the ascorbic acid, 6 hours after culture: then cultured 6 hours; for amount of the ascorbic acid, 12 hours after culture: then cultured 12 hours; for concentration of ascorbic acid in the tissue (in words): administered to the skin model
Procedure: To the surface of a human skin tissue three-dimensional model (trademark: TESTSKIN LSD-d, mfd. by Toyobo Co., Ltd.), 40 μL of a solution which had been obtained by dissolving each of the substances (1) to (3) to be tested in Dulbecco PBS (−), and the resultant skin tissue model was cultured at 37° C. in the presence of 5% CO2 for two hours. Then, the test solution was removed by aspiration, and thereafter the skin tissue model was cultured at 37° C. in the presence of 5% CO2 for 2, 6 and 12 hours, respectively.
Each of the portions of the skin model which had been sampled at each culture time was washed with Dulbecco PBS (−), the surface portion was punched out by using a punch having a diameter of 6 mm φ, and homogenized in a HEPES buffer solution (pH 7.2) to obtain a homogenate. By use of the thus obtained homogenate, the amount of the ascorbic acid contained in the skin model was quantitatively analyzed by using a high performance liquid chromatography. The protein content in the skin model was quantitatively analyzed by using the Lowry method.
Measurement Conditions for High Performance Liquid Chromatography

O=C1O[C@H]([C@@H](O)CO)C(O)=C1OP(=O)([O-])[O-].[Na+].[Na+] [Comparative Example A-2, L-ascorbic acid-2-phosphate sodium salt, reference compound]
Residual Ratio (%) [1]: 96.9%
Detachment tension (guinea pig incised wound): 123 g/cm
Hydroxyproline content (guinea pig incised wound): 32.1 nmol/skin wet weight

CCCCCCCCCC(CCCCCCC)C(=O)OC[C@H](O)[C@H]1OC(=O)C(OP(=O)(O)O)=C1O.[Na] (stereo partly drawn) [Example A-2, L-Ascorbic Acid-2-Phosphoric Acid-6-(2′-n-Heptylundecanoate) sodium salt]
Residual Ratio (%) [1]: 95.5%
amount of the ascorbic acid, 2 hours after culture [2]: 5 nmol/mg skin protein
amount of the ascorbic acid, 6 hours after culture [2]: 11 nmol/mg skin protein
amount of the ascorbic acid, 12 hours after culture [2]: 26 nmol/mg skin protein
concentration of ascorbic acid in the tissue (in words) [2]: concentration of the ascorbic acid in the tissue could easily be enhanced effectively
Detachment tension (guinea pig incised wound): 187 g/cm
Hydroxyproline content (guinea pig incised wound): 37.6 nmol/skin wet weight
effect on collagen synthesis and recovery of incised wound (in words) (guinea pig incised wound): had an effect of accelerating the collagen synthesis

CCCCCCCCC(CCCCCC)C(=O)OC[C@H](O)[C@H]1OC(=O)C(OP(=O)(O)O)=C1O.[Na] (stereo partly drawn) [Example A-1, L-Ascorbic acid-2-phosphoric acid-6-(2′-hexyldecanoate) sodium salt]
Residual Ratio (%) [1]: 95.3%
amount of the ascorbic acid, 2 hours after culture [2]: 6 nmol/mg skin protein
amount of the ascorbic acid, 6 hours after culture [2]: 10 nmol/mg skin protein
amount of the ascorbic acid, 12 hours after culture [2]: 23 nmol/mg skin protein
concentration of ascorbic acid in the tissue (in words) [2]: concentration of the ascorbic acid in the tissue could easily be enhanced effectively
Detachment tension (guinea pig incised wound): 181 g/cm
Hydroxyproline content (guinea pig incised wound): 38.5 nmol/skin wet weight
effect on collagen synthesis and recovery of incised wound (in words) (guinea pig incised wound): had an effect of accelerating the collagen synthesis

CCCCCCCCCCCCCCCC(=O)OC[C@H](O)[C@H]1OC(=O)C(OP(=O)(O)O)=C1O.[Na] [Comparative Example A-1, L-ascorbic acid-2-phosphoric acid-6-palmitatic acid ester sodium salt, reference compound]
Residual Ratio (%) [1]: 88.6%
